In ChEMBL document CHEMBL5370539, “Oxazole-4-carboxamide/butylated hydroxytoluene hybrids with GSK-3β inhibitory and neuroprotective activities against Alzheimer's disease” (Eur J Med Chem, 2023) one finds Activity and inhibition data, which are given here for 1 compound.

Data set [1] concerns PC-12. The data set can be described thus: Anti-apoptotic activity against H2O2-induced apoptosis in rat PC12 cells assessed as late apoptotic cells at 2.5 uM preincubated for 12 hrs followed by replacement with fresh media and H2O2 stimulation for 12 hrs by Annexin-V/7-AAD staining based flow cytometry (Rvb=2.2 %). In kind it is functional.
In data set [2] the test system is PC-12. The data set can be described thus: Neuroprotective activity against rat PC12 cells assessed as decrease in H2O2-induced mitochondrial membrane potential level at 2.5 uM preincubated for 12 hrs followed by replacement with fresh media and H2O2 stimulation for 12 hrs by JC-1 dye based flow cytometry (Rvb= 95.3%). In kind it is functional. Also on record: scale not given: the % may be the effect or the level left.

Data set [3] deals with PC12. The data set can be described thus: Activation of Nrf2-ARE pathway in rat PC-12 cells assessed as increase in Nrf2 expression level at 2.5 to 10 uM incubated for 12 hrs by Western blot analysis. In kind it is cell-based. As to conditions: filed as activator, dose 2.5-10 µM. On the technique in general: A western blot detects proteins with antibodies after separation by electrophoresis.

Data set [4] can be described thus: Toxicity in okadaic acid-induced cognitive impairment ICR mouse model assessed as swimming speed change at 0.08 to 0.24 mg/kg, iv twice at 3days interval before and after okadaic acid stimulation measured for 5 days by Morris water maze test. Conditions: in vivo, 120 h, dose 0.08-0.24 mg/kg, time 5 day. The class given is organism-based.
The test system of data set [5] is Mus musculus. The data set can be described thus: Antialzheimer activity in okadaic acid-induced cognitive impairment ICR mouse model assessed as increase of search time in target quadrant at 0.08 to 0.24 mg/kg, iv twice at 3days interval before and after okadaic acid stimulation measured upto 14 days by Morris water maze test relative to control. In kind it is functional, organism-based. Conditions: dose 0.08-0.24 mg/kg, time <= 14.0 day.

In data set [6] the test system is PC-12. The data set can be described thus: Anti-apoptotic activity against H2O2-induced apoptosis in rat PC12 cells assessed as dead cells at 5 uM preincubated for 12 hrs followed by replacement with fresh media and H2O2 stimulation for 12 hrs by Annexin-V/7-AAD staining based flow cytometry (Rvb=4.1%). The class given is functional.
The test system of data set [7] is PC-12. The data set can be described thus: Neuroprotective activity against rat PC12 cells assessed as decrease in H2O2-induced intracellular Ca2+ level at 2.5 uM preincubated for 12 hrs followed by replacement with fresh media and H2O2 stimulation for 12 hrs by Fluo-3 AM based flow cytometry relative to control. The class given is functional. Also on record: scale not given: the % may be the effect or the level left.

Data set [8] concerns PC12. The data set can be described thus: Activation of Nrf2-ARE pathway in rat PC-12 cells assessed as increase in NQO1 expression level at 2.5 to 10 uM incubated for 12 hrs by Western blot analysis. In kind it is cell-based. As to conditions: filed as activator, dose 2.5-10 µM.
The subject of data set [9] is PC-12. The data set can be described thus: Neuroprotective activity against H2O2-induced cytotoxicity in rat PC12 cells assessed as increase in cell viability at 10 uM preincubated for 12 hrs followed by replacement with fresh media and H2O2 stimulation for 12 hrs by MTT assay. The class given is functional, cell-based. On the technique in general: Tetrazolium assays rely on reduction of a dye to a coloured formazan, in cell work by metabolically active cells.

Data set [10] addresses Glycogen synthase kinase-3 beta (Homo sapiens, UniProt P49841). The data set can be described thus: Inhibition of human GSK-3beta overexpressed in human HEK293T cells assessed as decrease in Tau phosphorylation at t205 at 0.625 to 10 uM incubated for 24 hrs by Western blot analysis. The class given is cell-based. As to conditions: dose 0.625-10 µM.
For data set [11], the system named is Mus musculus. The data set can be described thus: Antialzheimer activity in okadaic acid-induced cognitive impairment ICR mouse model assessed as increase in number of groups crossing virtual platform at 0.08 to 0.24 mg/kg, iv twice at 3days interval before and after okadaic acid stimulation measured upto 14 days by Morris water maze test relative to control. The class given is functional, organism-based. As to conditions: dose 0.08-0.24 mg/kg, time <= 14.0 day.

Data set [12] has as its system PC-12. The data set can be described thus: Anti-apoptotic activity against H2O2-induced apoptosis in rat PC12 cells assessed as early apoptotic cells at 10 uM preincubated for 12 hrs followed by replacement with fresh media and H2O2 stimulation for 12 hrs by Annexin-V/7-AAD staining based flow cytometry (Rvb=0.8%). The class given is functional. A general note: Flow cytometry measures light scatter and fluorescence of single cells or particles in a stream.

Data set [13] deals with PC-12. The data set can be described thus: Neuroprotective activity against rat PC12 cells assessed as decrease in H2O2-induced intracellular ROS production at 2.5 to 10 uM preincubated for 12 hrs followed by replacement with fresh media and H2O2 stimulation for 12 hrs by DCFH-DA staining based flow cytometry. The class given is functional, cell-based. As to conditions: dose 2.5-10 µM.

The source made the active and inactive calls. The calls are words filed in the database; no cut-off is given here.

Sequence of Glycogen synthase kinase-3 beta (P49841 whole entry, looked up): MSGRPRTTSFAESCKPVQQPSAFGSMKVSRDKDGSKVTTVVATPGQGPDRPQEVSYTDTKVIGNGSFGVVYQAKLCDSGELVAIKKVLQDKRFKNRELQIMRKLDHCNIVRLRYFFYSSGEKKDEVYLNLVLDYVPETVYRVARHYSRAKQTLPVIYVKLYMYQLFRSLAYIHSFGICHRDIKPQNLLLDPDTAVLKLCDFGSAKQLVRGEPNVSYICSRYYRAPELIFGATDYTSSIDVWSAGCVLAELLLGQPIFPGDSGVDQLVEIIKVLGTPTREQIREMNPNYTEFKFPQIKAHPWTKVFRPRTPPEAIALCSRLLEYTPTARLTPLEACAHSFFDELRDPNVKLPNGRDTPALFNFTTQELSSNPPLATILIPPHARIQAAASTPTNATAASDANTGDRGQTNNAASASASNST

For `COc1ccc(-c2ocnc2C(=O)NCCCc2ccc(NC(=O)/C=C/c3cc(C(C)(C)C)c(O)c(C(C)(C)C)c3)cc2)cc1Cl`, the Activity in the data set on PC-12 [1] is 16.4%; in the data set with PC-12 [2], 68.4%; in the data set with PC12 [3] it was “Dose-Dependent Effect”; in [4], “Non-Toxic”; with PC-12 [6] it was 2.5%; in the data set with PC-12 [7], 24.5%. Also, the Activity result in the data set on PC12 [8] was “Dose-Dependent Effect”; with PC-12 [12], 2%; with PC-12 [13], “Dose-Dependent Effect”. Besides, the result in the data set on Mus musculus [5], in the data set on PC-12 [9] and in the data set on Mus musculus [11] was Active. Also, the inhibition result in data set [10] was “Dose-Dependent Effect”.
